Data reported in patent US20100105657A1, “Compounds, Process for their Preparation, Intermediates, Pharmaceutical Compositions and their use in the Treatment of 5-HT6 Mediated Disorders such as Alzheimer's Disease, Cognitive Disorders, Cognitive Impairment Associated with Schizophrenia, Obesity and Parkinson's Disease” (AstraZeneca AB, priority 2005, published 2010).

Target: T1, Rat Striatal 5-HT6 Receptors (Rattus norvegicus, UniProt P31388)
T1 construct: Striatal tissue from adult rats (Sprague-Dawley, 320-370 g, B & K Sweden) were dissected out, weighed and homogenized; from tissue; host or cells: rat striatum (Sprague-Dawley) membranes
Assay: [125I]SB258585 binding to rat striatal 5-HT6 receptors
Details: competition with [125I]SB258585, rat striatal membranes
Procedure: Method for [125I]SB258585 Binding to Rat Striatal 5-HT6 Receptors
[^125I]SB258585 (1) with specific radioactivity 2000 Ci/mmol was purchased from Amersham Biosciences Europe GmbH, Freiburg, Germany. Other chemicals were purchased from commercial sources and were of analytical grade.
Striatal tissue from adult rats (Sprague-Dawley, 320-370 g, B & K Sweden) were dissected out, weighed and homogenized in buffer containing 50 mM Tris-HCl, 4 mM MgCl2, 1 mM EDTA, 10 μM pargyline and protease inhibitor (Complete, Roche Diagnostics) pH 7.4 using an Ultra-Turrax T8 (IKA Labortechnik, Germany). The tissue homogenate was centrifuged at 48 000×g for 10 min and the pellet was resuspended and recentrifuged as above. […]
Saturation binding studies were carried out in duplicate with 1-3 mg w.w. per tube in 0.5 ml buffer (50 mM Tris, 4 mM MgCl2, 100 mM NaCl, 1 mM EDTA, 5 mM ascorbate and 10 μM pargyline at pH 7.4), 0.2 nM [^125I]SB258585 and unlabelled SB258585 to give a final concentration range of 0.23-20 nM (12 conc.). Non-specific binding was determined in the presence of 10 μM methiothepin. […] The radioactivity was determined in a Packard Tri-Carb 2900TR liquid scintillation counter. Data were analyzed by non-linear regression analyses using PRISM 4.00 (GraphPad Software Inc., San Diego, Calif.). […]

T1 sequence (P31388 whole entry): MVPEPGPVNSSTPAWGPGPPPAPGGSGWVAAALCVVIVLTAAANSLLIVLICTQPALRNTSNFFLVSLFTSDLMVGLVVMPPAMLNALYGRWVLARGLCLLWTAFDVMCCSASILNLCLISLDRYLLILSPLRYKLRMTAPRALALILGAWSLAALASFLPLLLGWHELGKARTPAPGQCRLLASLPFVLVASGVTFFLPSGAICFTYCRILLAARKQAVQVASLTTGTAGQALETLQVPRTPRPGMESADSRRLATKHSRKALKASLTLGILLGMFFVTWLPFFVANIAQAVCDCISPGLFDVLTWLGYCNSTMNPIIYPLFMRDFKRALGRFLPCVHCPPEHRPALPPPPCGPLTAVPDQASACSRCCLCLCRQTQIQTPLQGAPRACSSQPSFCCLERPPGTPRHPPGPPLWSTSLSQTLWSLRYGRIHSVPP

Structure (SMILES)	Ki [nM]
CN1CCOc2ccc(NS(=O)(=O)c3cccc(Cl)c3Cl)cc2C1 [Example 6, 2,3-dichloro-N-(4-methyl-2,3,4,5-tetrahydro-1,4-benzoxazepin-7-yl)benzenesulfonamide]	31 ± 9
O=S(=O)(Nc1ccc2c(c1)CNCCC2)c1csc(C(F)(F)F)c1-c1ccccc1 [Example 39, 4-phenyl-N-(2,3,4,5-tetrahydro-1H-2-benzazepin-8-yl)-5-(trifluoromethyl)thiophene-3-sulfonamide]	32 ± 14
